In experiment [1] the target is PTGER2 (EP2) (Homo sapiens (Human), UniProt P43116). Nature of the experiment: hEP2 b-arrestin assay (PathHunter HEK 293 PTGER2 b-arrestin cells). The experiment is classed as cell-based. The note with it: antagonistic activity on hEP2; mean where measured multiple times. In outline:
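Readout is β-galactosidase complementation luminescence, expressed as percent of DMSO control (duplicates). PathHunter HEK293 EP2/β-arrestin 2 cells, grown 24 h, received compound for 15 min at 37 °C before a 120 min challenge with PGE2 at 5 μM final, followed by 1 h detection at room temperature.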

In experiment [2] the target is PTRGER4 (EP4) (Homo sapiens (Human), UniProt P35408). In words: hEP4 b-arrestin assay (PathHunter HEK 293 PTGER4 b-arrestin cells). The note with it: antagonistic activity on hEP4; mean where measured multiple times. Format: cell-based. In outline: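 Antagonist mode: compound is given 15 min at 37 °C, then 20 nM (final) PGE2 for 120 min, in HEK293 cells stably expressing EP4 fused to ProLink and β-arrestin 2 fused to EA. Recruitment read as β-gal luminescence after 1 h reagent at room temperature, as percent of DMSO control.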

These results are taken from patent US12011444B2, “N-substituted indole derivatives as PGE2 receptor modulators” (Idorsia Pharmaceuticals Ltd, priority 2015, dated 2024).

Sequence of PTGER2 (EP2) (P43116 whole entry): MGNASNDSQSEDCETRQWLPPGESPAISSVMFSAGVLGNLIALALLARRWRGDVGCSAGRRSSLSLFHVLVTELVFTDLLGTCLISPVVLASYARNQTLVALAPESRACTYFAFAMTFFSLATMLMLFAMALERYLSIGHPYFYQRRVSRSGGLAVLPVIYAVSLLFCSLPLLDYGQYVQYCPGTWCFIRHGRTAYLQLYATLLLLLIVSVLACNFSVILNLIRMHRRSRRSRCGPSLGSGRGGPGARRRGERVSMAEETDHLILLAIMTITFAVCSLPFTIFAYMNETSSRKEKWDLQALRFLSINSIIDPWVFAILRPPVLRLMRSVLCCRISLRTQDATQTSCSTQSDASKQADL
Sequence of PTRGER4 (EP4) (P35408 whole entry, looked up, the tested form may be a part): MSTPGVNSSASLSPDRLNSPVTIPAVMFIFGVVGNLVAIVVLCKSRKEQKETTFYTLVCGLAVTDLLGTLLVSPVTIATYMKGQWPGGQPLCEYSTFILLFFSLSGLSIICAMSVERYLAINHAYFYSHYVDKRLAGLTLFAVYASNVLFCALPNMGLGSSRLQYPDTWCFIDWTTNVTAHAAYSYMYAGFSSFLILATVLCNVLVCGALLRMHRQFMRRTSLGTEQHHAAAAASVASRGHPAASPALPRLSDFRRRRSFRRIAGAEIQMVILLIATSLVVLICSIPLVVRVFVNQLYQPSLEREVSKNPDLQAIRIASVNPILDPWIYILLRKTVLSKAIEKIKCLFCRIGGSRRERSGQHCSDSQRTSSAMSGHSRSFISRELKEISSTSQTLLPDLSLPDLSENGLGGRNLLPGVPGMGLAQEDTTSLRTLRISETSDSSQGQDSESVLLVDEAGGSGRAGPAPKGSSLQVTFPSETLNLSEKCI

Consider `CCOc1cc(-c2cc(NCCn3c(C#N)cc4ccccc43)ncn2)ccc1C(=O)O` [compound 138, 4-{6-[2-(2-Cyano-indol-1-yl)-ethylamino]-pyrimidin-4-yl}-2-ethoxy-benzoic acid], for which the IC50 in experiment [1] amounted to 0.007 µM; in experiment [2] it was 0.567 µM.
In the same order, the values of `COc1cccc2c1cc(C)n2CCNc1cc(-c2ccc(S(N)(=O)=O)c(C)c2)ncn1` [compound 139, 4-{6-[2-(4-Methoxy-2-methyl-indol-1-yl)-ethylamino]-pyrimidin-4-yl}-2-methyl-benzenesulfonamide] are 0.028 µM and 0.939 µM.
In the same order, the values of `Cc1cccc2c1cc(C)n2CCNc1cc(-c2ccc(C(=O)O)c(CC(C)C)c2)ncn1` [compound 140, 4-{6-[2-(2,4-Dimethyl-indol-1-yl)-ethylamino]-pyrimidin-4-yl}-2-isobutyl-benzoic acid] are 0.011 µM and 0.476 µM.
As for `CSc1cc(-c2cc(NCCn3c(C)cc4c(Cl)ccc(Cl)c43)ncn2)cc(F)c1C(=O)O` [compound 141, 4-{6-[2-(4,7-Dichloro-2-methyl-indol-1-yl)-ethylamino]-pyrimidin-4-yl}-2-fluoro-6-methylsulfanyl-benzoic acid], the half-maximal inhibitory concentration (IC50) amounted to 0.02 µM in experiment [1] and 0.992 µM in experiment [2].
In the same order, the values of `CSc1cc(-c2cc(NCCn3c(C)cc4c(Cl)ccc(Cl)c43)ncn2)cc(Cl)c1C(=O)O` [compound 142, 2-Chloro-4-{6-[2-(4,7-dichloro-2-methyl-indol-1-yl)-ethylamino]-pyrimidin-4-yl}-6-methylsulfanyl-benzoic acid] are 0.016 µM and 0.588 µM.
In the case of `CCCc1cc(-c2cc(NCCn3c(C)cc4c(F)ccc(Cl)c43)ncn2)ccc1C(=O)O` [compound 143, 4-{6-[2-(7-Chloro-4-fluoro-2-methyl-indol-1-yl)-ethylamino]-pyrimidin-4-yl}-2-propyl-benzoic acid], the concentration for half-maximal inhibition (IC50) was 0.005 µM in experiment [1] and 0.658 µM in experiment [2].
Take `CCCc1cc(-c2cc(NCCn3c(C)cc4c(F)ccc(F)c43)ncn2)ccc1C(=O)O` [compound 144, 4-{6-[2-(4,7-Difluoro-2-methyl-indol-1-yl)-ethylamino]-pyrimidin-4-yl}-2-propyl-benzoic acid]: the IC50 in experiment [1] was 0.003 µM; in experiment [2] it was 0.658 µM.
In the same order, the values of `CCCc1cc(-c2cc(NCCn3c(C)cc4cc(F)cc(F)c43)ncn2)ccc1C(=O)O` [compound 145, 4-{6-[2-(5,7-Difluoro-2-methyl-indol-1-yl)-ethylamino]-pyrimidin-4-yl}-2-propyl-benzoic acid] are 0.008 µM and 0.302 µM.
In the same order, the values of `CCSc1cc(-c2cc(NCCn3c(C)cc4c(C)ccc(Cl)c43)ncn2)ccc1C(=O)O` [compound 146, 4-{6-[2-(7-Chloro-2,4-dimethyl-indol-1-yl)-ethylamino]-pyrimidin-4-yl}-2-ethylsulfanyl-benzoic acid] are 0.008 µM and 0.334 µM.
In the same order, the values of `CCCc1cc(-c2cc(NCCn3c(C)cc4c(C)ccc(F)c43)ncn2)ccc1C(=O)O` [compound 147, 4-{6-[2-(7-Fluoro-2,4-dimethyl-indol-1-yl)-ethylamino]-pyrimidin-4-yl}-2-propyl-benzoic acid] are 0.016 µM and 0.109 µM.
On to `Cc1cc2cccc(F)c2n1CCNc1cc(-c2ccc(C(=O)O)c(CC(C)C)c2)ncn1` [compound 148, 4-{6-[2-(7-Fluoro-2-methyl-indol-1-yl)-ethylamino]-pyrimidin-4-yl}-2-isobutyl-benzoic acid], for which the 50% inhibitory concentration (IC50) in experiment [1] was 0.007 µM; in experiment [2], 0.943 µM.
In the same order, the values of `CCSc1cc(-c2cc(NCCn3c(C)cc4c(Cl)ccc(Cl)c43)ncn2)ccc1C(=O)O` [compound 149, 4-{6-[2-(4,7-Dichloro-2-methyl-indol-1-yl)-ethylamino]-pyrimidin-4-yl}-2-ethylsulfanyl-benzoic acid] are 0.01 µM and 0.605 µM.
In the same order, the values of `CSc1cc(-c2cc(NCCn3c(C)cc4c(C)ccc(Cl)c43)ncn2)cc(Cl)c1C(=O)O` [compound 150] are 0.054 µM and 0.458 µM.
In the same order, the values of `CCOc1cc(-c2cc(NCCn3c(C)cc4c(Cl)ccc(Cl)c43)ncn2)ccc1C(=O)O` [compound 151, 4-{6-[2-(4,7-Dichloro-2-methyl-indol-1-yl)-ethylamino]-pyrimidin-4-yl}-2-ethoxy-benzoic acid] are 0.008 µM and 0.808 µM.
As for `CCOc1cc(-c2cc(NCCn3c(C)cc4c(F)ccc(Cl)c43)ncn2)ccc1C(=O)O` [compound 152, 4-{6-[2-(7-Chloro-4-fluoro-2-methyl-indol-1-yl)-ethylamino]-pyrimidin-4-yl}-2-ethoxy-benzoic acid], the IC50 in experiment [1] is 0.003 µM; in experiment [2], 0.786 µM.
In the same order, the values of `CCOc1cc(-c2cc(NCCn3c(C)cc4cc(Cl)cc(Cl)c43)ncn2)ccc1C(=O)O` [compound 153] are 0.202 µM and 0.739 µM.
In the same order, the values of `CCOc1cc(-c2cc(NCCn3c(C)cc4c(F)ccc(F)c43)ncn2)ccc1C(=O)O` [compound 154, 4-{6-[2-(4,7-Difluoro-2-methyl-indol-1-yl)-ethylamino]-pyrimidin-4-yl}-2-ethoxy-benzoic acid] are 0.001 µM and 0.628 µM.
In the same order, the values of `COc1ccc(Cl)c2c1cc(C)n2CCNc1cc(-c2cc(C)c(C(=O)O)c(Cl)c2)ncn1` [compound 155] are 0.055 µM and 0.251 µM.
On to `COc1ccc(F)c2c1cc(C)n2CCNc1cc(-c2cc(C)c(C(=O)O)c(Cl)c2)ncn1` [compound 156], for which the values for the half-maximal inhibitory concentration (IC50) in experiment [1] and in experiment [2] were 0.078 µM and 0.093 µM, respectively.
Take `CCOc1cc(-c2cc(NCCn3c(C)cc4c(C)ccc(Cl)c43)ncn2)ccc1C(=O)O` [compound 157, 4-{6-[2-(7-Chloro-2,4-dimethyl-indol-1-yl)-ethylamino]-pyrimidin-4-yl}-2-ethoxy-benzoic acid]: the concentration for half-maximal inhibition (IC50) in experiment [1] turned out to be 0.027 µM; in experiment [2], 0.59 µM.
In the same order, the values of `CCOc1cc(-c2cc(NCCn3c(C)cc4c(OC)ccc(F)c43)ncn2)ccc1CO` [compound 159, (2-Ethoxy-4-{6-[2-(7-fluoro-4-methoxy-2-methyl-indol-1-yl)-ethylamino]-pyrimidin-4-yl}-phenyl)-methanol] are 0.004 µM and 0.075 µM.
Regarding `CCc1cc(-c2cc(NCCn3c(C)cc4c(OC)cccc43)ncn2)cc(Cl)c1C(=O)O` [compound 160, 2-Chloro-6-ethyl-4-{6-[2-(4-methoxy-2-methyl-indol-1-yl)-ethylamino]-pyrimidin-4-yl}-benzoic acid], the IC50 was 0.048 µM in experiment [1] and 0.204 µM in experiment [2].
In the same order, the values of `COc1ccc(F)c2c1cc(C)n2CCNc1cc(-c2ccc(S(C)(=O)=O)c(F)c2)ncn1` [compound 161] are 0.396 µM and 0.993 µM.
In the same order, the values of `CCOc1cc(-c2cc(NCCn3c(C)cc4c(C)c(F)cc(F)c43)ncn2)sc1C(=O)O` [compound 162, 5-{6-[2-(5,7-Difluoro-2,4-dimethyl-indol-1-yl)-ethylamino]-pyrimidin-4-yl}-3-ethoxy-thiophene-2-carboxylic acid] are 0.003 µM and 0.004 µM.
In the same order, the values of `CCNc1cc(-c2cc(NCCn3c(C)cc4cccc(C#N)c43)ncn2)ccc1C(=O)O` [compound 163] are 0.111 µM and 0.842 µM.
Turning to `Cc1ccc(F)c2c1cc(C)n2CCNc1cc(-c2ccc3[nH]cnc3c2)ncn1` [compound 164], the IC50 in experiment [1] turned out to be 0.113 µM; in experiment [2], 0.52 µM.
`CC(C)Cc1cc(-c2cc(NCCn3c(C#N)cc4ccccc43)ncn2)ccc1C(=O)O` [compound 165, 4-{6-[2-(2-Cyano-indol-1-yl)-ethylamino]-pyrimidin-4-yl}-2-isobutyl-benzoic acid]: the IC50 in experiment [1] came out at 0.019 µM; in experiment [2], 0.23 µM.
`Cc1ccc(F)c2c1cc(C)n2CCNc1cc(-c2cc(F)c(S(N)(=O)=O)c(F)c2)ncn1` [compound 166]: the half-inhibitory concentration (IC50) in experiment [1] turned out to be 0.131 µM; in experiment [2] it was 0.733 µM.
In the case of `CCNc1cc(-c2cc(NCCn3c(C)cc4cc(F)cc(F)c43)ncn2)ccc1C(=O)O` [compound 167, 4-{6-[2-(5,7-Difluoro-2-methyl-indol-1-yl)-ethylamino]-pyrimidin-4-yl}-2-ethylamino-benzoic acid], the IC50 in experiment [1] stood at 0.006 µM; in experiment [2], 0.333 µM.
As to `Cc1ccc(F)c2c1cc(C)n2CCNc1cc(-c2ccc(C(=O)NCCO)cc2)ncn1` [compound 168], the IC50 was 0.146 µM in experiment [1] and 0.995 µM in experiment [2].
In the same order, the values of `Cc1cc2c(Cl)cccc2n1CCNc1cc(-c2ccc(C(=O)O)c(C3CC3)c2)ncn1` [compound 169] are 0.008 µM and 0.543 µM.
Regarding `CCNc1cc(-c2cc(NCCn3c(C)cc4ccc(OC)cc43)ncn2)ccc1C(=O)O` [compound 170, 2-Ethylamino-4-{6-[2-(6-methoxy-2-methyl-indol-1-yl)-ethylamino]-pyrimidin-4-yl}-benzoic acid], the IC50 in experiment [1] was 0.001 µM; in experiment [2], 0.35 µM.
In the same order, the values of `COc1ccc(F)c2c1cc(C)n2CCNc1cc(-c2ccc(S(N)(=O)=O)c(C)c2)ncn1` [compound 171] are 0.112 µM and 0.231 µM.
In the same order, the values of `COc1ccc(F)c2c1cc(C)n2CCNc1cc(-c2ccc(S(N)(=O)=O)c(Cl)c2)ncn1` [compound 172] are 0.054 µM and 0.536 µM.
In the same order, the values of `Cc1cc2c(F)ccc(F)c2n1CCNc1cc(-c2ccc(C(=O)O)c(C3CC3)c2)ncn1` [compound 173, 2-Cyclopropyl-4-{6-[2-(4,7-difluoro-2-methyl-indol-1-yl)-ethylamino]-pyrimidin-4-yl}-benzoic acid] are 0.005 µM and 0.894 µM.
